Earlier results as cited in patent US4981695A, “Composition comprising L-dopa” (priority 1986, dated 1991).

Key:
[1] = background
Parkinsons disease = conditions: particularly tremor; background

Row | Structure (SMILES) | decomposition by carboxylic elimination [1] | resorption (absorption window) ([1]; gastro-intestinal tract) | inhibition of symptoms of the Parkinsons disease (Parkinsons disease) | L-dopa dose on adding a decarboxylase inhibitor [1]
1 | N[C@@H](Cc1ccc(O)c(O)c1)C(=O)O [L-dopa, L-3,4-dihydroxyphenylalanine] | rapidly decomposed by carboxylic elimination | resorbed over a restricted part of the gastro-intestinal tract | active at the inhibition of symptoms of the Parkinsons disease | –
2 | NC(CO)C(=O)NNCc1ccc(O)c(O)c1O (centres unmarked) [benserazide] | – | – | – | considerably reduced
3 | C[C@@](Cc1ccc(O)c(O)c1)(NN)C(=O)O [carbidopa] | – | – | – | considerably reduced
